Data published in patent US20220281876A1, “DEGRADATION OF BRUTON'S TYROSINE KINASE (BTK) BY CONJUGATION OF BTK INHIBITORS WITH E3 LIGASE LIGAND AND METHODS OF USE” (BEIGENE, LTD., priority 2019, published 2022).

Target: T1, BTK (Homo sapiens, UniProt Q06187)
T1 construct: endogenous in cells; host or cells: Ramos cells
Assay: BTK cell degradation in Ramos cells (total BTK ELISA)
Type: cell-based
Details: 16 h incubation, FastScan total BTK ELISA
Experimental: Ramos cells are treated with compounds diluted in 0.1% DMSO, dilution is done according to the following protocol: (1) make 1000x stock solution in DMSO from 10 mM by 5-fold dilution, total 7 doses were included; (2) make 10x solution in cell culture medium by transferring 1 ul 1000x stock solution into 99 ul medium; (3) 11 ul of 10× solution is added to cells and incubate for 16 h.
Cells in 96 well plate are harvested by centrifugation (1200 rpm), and wash once with ice-cold PBS. Then, 100 ul 1×cell extraction buffer is added in each well. The cells are placed on a shaker for 20 min at 4° C.; 5 ul lysate is transferred to 45 ul of 1×cell extraction buffer in ELISA plate, and 50 ul of the antibody cocktail is added in each well; seal the plate and incubate 1 hour at room temperature on a plate shaker; medium is discarded from the plate, tap the plated on a paper towel, wash 3×200 ul ELISA wash buffer; add 100 ul of TMB to each well and incubate the plate in the dark for 15 min at room temperature on a shaker; add 100 ul of STOP solution to each well; read absorbance at 450 nm. The BTK ELISA assay was performed using FastScan total BTK ELISA kit (Cell Signaling Cat #36609).

T1 sequence (Q06187 whole entry): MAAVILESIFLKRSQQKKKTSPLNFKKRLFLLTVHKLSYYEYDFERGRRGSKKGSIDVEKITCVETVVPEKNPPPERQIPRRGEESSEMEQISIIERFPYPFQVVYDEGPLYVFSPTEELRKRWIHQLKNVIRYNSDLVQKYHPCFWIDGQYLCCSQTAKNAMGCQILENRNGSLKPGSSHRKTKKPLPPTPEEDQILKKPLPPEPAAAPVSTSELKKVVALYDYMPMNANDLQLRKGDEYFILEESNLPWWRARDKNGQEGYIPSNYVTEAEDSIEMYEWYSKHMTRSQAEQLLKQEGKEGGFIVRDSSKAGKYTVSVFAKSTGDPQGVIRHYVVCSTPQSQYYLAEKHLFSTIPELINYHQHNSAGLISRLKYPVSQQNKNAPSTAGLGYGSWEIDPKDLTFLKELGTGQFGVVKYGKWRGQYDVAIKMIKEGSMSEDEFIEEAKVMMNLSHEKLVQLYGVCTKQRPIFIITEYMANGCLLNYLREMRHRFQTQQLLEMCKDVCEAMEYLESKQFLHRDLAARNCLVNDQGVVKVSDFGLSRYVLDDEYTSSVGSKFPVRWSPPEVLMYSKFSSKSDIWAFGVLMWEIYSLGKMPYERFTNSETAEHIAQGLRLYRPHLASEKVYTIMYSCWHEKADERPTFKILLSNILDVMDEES

For `NC(=O)c1c(-c2ccc(Oc3ccccc3)cc2)nn2c1NCC[C@H]2C1CCN(C(=O)c2cn(CCOCCOCCOCCOCCOCCOCCNc3cccc4c3C(=O)N(C3CCC(=O)NC3=O)C4=O)nn2)CC1` (stereo partly drawn) [Example 16, (7S)-7-(1-(1-(20-((2-(2,6-dioxopiperidin-3-yl)-1,3-dioxoisoindolin-4-yl)amino)-3,6,9, 12, 15, 18-hexaoxaicosyl)-1H-1,2,3-triazole-4-carbonyl)piperidin-4-yl)-2-(4-phenoxyphenyl)-4,5,6,7-tetrahydropyrazolo[1,5-a]pyrimidine-3-carboxamide], which DC50 is on record?
The DC50 was 107 nM.

How did the DC50 turn out when `NC(=O)c1c(-c2ccc(Oc3ccccc3)cc2)nn2c1NCC[C@H]2C1CCN(C(=O)CCCNC(=O)COCCOCCOCCOCCNc2cccc3c2C(=O)N(C2CCC(=O)NC2=O)C3=O)CC1` (stereo partly drawn) [Example 34, (7S)-7-(1-(1-((2-(2,6-dioxopiperidin-3-yl)-1,3-dioxoisoindolin-4-yl)amino)-14-oxo-3,6,9, 12-tetraoxa-15-azanonadecan-19-oyl)piperidin-4-yl)-2-(4-phenoxyphenyl)-4,5,6,7-tetrahydropyrazolo[1,5-a]pyrimidine-3-carboxamide] was run?
The DC50 was 1890 nM.

For `NC(=O)c1c(-c2ccc(Oc3ccccc3)cc2)nn2c1NCC[C@H]2C1CCN(C(=O)CCCc2ccc(N3CCN(c4ccc5c(c4)C(=O)N(C4CCC(=O)NC4=O)C5=O)CC3)cc2)CC1` (stereo partly drawn) [Example 44, (7S)-7-(1-(4-(4-(4-(2-(2,6-dioxopiperidin-3-yl)-1,3-dioxoisoindolin-5-yl)piperazin-1-yl)phenyl)butanoyl)piperidin-4-yl)-2-(4-phenoxyphenyl)-4,5,6,7-tetrahydropyrazolo[1,5-a]pyrimidine-3-carboxamide], which DC50 is on record?
The DC50 was over 10000 nM.

`NC(=O)c1c(-c2ccc(Oc3ccccc3)cc2)nn2c1NCC[C@H]2C1CCN(C(=O)CCCc2cn(CCCCNC(=O)COc3cccc4c3C(=O)N(C3CCC(=O)NC3=O)C4=O)nn2)CC1` (stereo partly drawn) [Example 19, (7S)-7-(1-(4-(1-(4-(2-((2-(2,6-dioxopiperidin-3-yl)-1,3-dioxoisoindolin-4-yl)oxy)acetamido)butyl)-1H-1,2,3-triazol-4-yl)butanoyl)piperidin-4-yl)-2-(4-phenoxyphenyl)-4,5,6,7-tetrahydropyrazolo[1,5-a]pyrimidine-3-carboxamide] was tested. Which DC50 did it give?
Its DC50 is 6410 nM.

How did the DC50 turn out when `NC(=O)c1c(-c2ccc(Oc3ccccc3)cc2)nn2c1NCC[C@H]2C1CCN(C(=O)CCNc2cccc3c2C(=O)N(C2CCC(=O)NC2=O)C3=O)CC1` (stereo partly drawn) [Example 154, (7S)-7-(1-(3-((2-(2,6-dioxopiperidin-3-yl)-1,3-dioxoisoindolin-4-yl)amino)propanoyl)piperidin-4-yl)-2-(4-phenoxyphenyl)-4,5,6,7-tetrahydropyrazolo[1,5-a]pyrimidine-3-carboxamide] was run?
Its DC50 is 637 nM.

With `CN(CCNc1cccc2c1C(=O)N(C1CCC(=O)NC1=O)C2=O)CCC(=O)N1CCC([C@@H]2CCNc3c(C(N)=O)c(-c4ccc(Oc5ccccc5)cc4)nn32)CC1` (stereo partly drawn) [Example 38, (7S)-7-(1-(3-((2-((2-(2,6-dioxopiperidin-3-yl)-1,3-dioxoisoindolin-4-yl)amino)ethyl)(methyl)amino)propanoyl)piperidin-4-yl)-2-(4-phenoxyphenyl)-4,5,6,7-tetrahydropyrazolo[1,5-a]pyrimidine-3-carboxamide] as the compound, how does the DC50 read?
The DC50 was 371 nM.

For `NC(=O)c1c(-c2ccc(Oc3ccccc3)cc2)nn2c1NCC[C@H]2C1CCN(C(=O)COCCOCCNC(=O)CCCCN2CCN(c3ccc4c(c3)C(=O)N(C3CCC(=O)NC3=O)C4=O)CC2)CC1` (stereo partly drawn) [Example 35, (7S)-7-(1-(2-(2-(2-(5-(4-(2-(2,6-dioxopiperidin-3-yl)-1,3-dioxoisoindolin-5-yl)piperazin-1-yl)pentanamido)ethoxy)ethoxy)acetyl)piperidin-4-yl)-2-(4-phenoxyphenyl)-4,5,6,7-tetrahydropyrazolo[1,5-a]pyrimidine-3-carboxamide], which DC50 is on record?
Its DC50 is 326 nM.

With `CN(CC1CCN(C(=O)c2ccc(N3CCC(=O)NC3=O)cc2)CC1)C1CC(C(=O)N2CCC([C@@H]3CCNc4c(C(N)=O)c(-c5ccc(Oc6ccccc6)cc5)nn43)CC2)C1` (stereo partly drawn) [Example 155, (S)-7-(1-(3-(((1-(4-(2,4-dioxotetrahydropyrimidin-1(2H)-yl)benzoyl)piperidin-4-yl)methyl)(methyl)amino)cyclobutane-1-carbonyl)piperidin-4-yl)-2-(4-phenoxyphenyl)-4,5,6,7-tetrahydropyrazolo[1,5-a]pyrimidine-3-carboxamide] as the compound, how does the DC50 read?
Its DC50 is 7.2 nM.

Which DC50 does the source give for `CN(C/C=C/C(=O)N1CCC([C@@H]2CCNc3c(C(N)=O)c(-c4ccc(Oc5ccccc5)cc4)nn32)CC1)CCCCCCNc1cccc2c1CN(C1CCC(=O)NC1=O)C2=O` (stereo partly drawn) [Example 47, (7S)-7-(1-((E)-4-((6-((2-(2,6-dioxopiperidin-3-yl)-1-oxoisoindolin-4-yl)amino)hexyl)(methyl)amino)but-2-enoyl)piperidin-4-yl)-2-(4-phenoxyphenyl)-4,5,6,7-tetrahydropyrazolo[1,5-a]pyrimidine-3-carboxamide] here?
The DC50 was 315 nM.

Which DC50 does the source give for `NC(=O)c1c(-c2ccc(Oc3ccccc3)cc2)nn2c1NCC[C@H]2C1CCN(C(=O)CCC2CCC(N3CCN(c4ccc5c(c4)C(=O)N(C4CCC(=O)NC4=O)C5=O)CC3)CC2)CC1` (stereo partly drawn) [Example 151, (7S)-7-(1-(3-(4-(4-(2-(2,6-dioxopiperidin-3-yl)-1,3-dioxoisoindolin-5-yl)piperazin-1-yl)cyclohexyl)propanoyl)piperidin-4-yl)-2-(4-phenoxyphenyl)-4,5,6,7-tetrahydropyrazolo[1,5-a] pyrimidine-3-carboxamide] here?
The DC50 was 17 nM.

How did the DC50 turn out when `CN(C/C=C/C(=O)N1CCC([C@@H]2CCNc3c(C(N)=O)c(-c4ccc(Oc5ccccc5)cc4)nn32)CC1)CCCCCCN1C(=O)CCC(N2Cc3c(N)cccc3C2=O)C1=O` (stereo partly drawn) [Example 51, (7S)-7-(1-((E)-4-((6-(3-(4-amino-1-oxoisoindolin-2-yl)-2,6-dioxopiperidin-1-yl)hexyl)(methyl)amino)but-2-enoyl)piperidin-4-yl)-2-(4-phenoxyphenyl)-4,5,6,7-tetrahydropyrazolo[1,5-a]pyrimidine-3-carboxamide] was run?
The DC50 was over 10000 nM.

For `NC(=O)c1c(-c2ccc(Oc3ccccc3)cc2)nn2c1NCC[C@H]2C1CCN(C(=O)c2cn(CCOCCNc3cccc4c3C(=O)N(C3CCC(=O)NC3=O)C4=O)nn2)CC1` (stereo partly drawn) [Example 2, (7S)-7-(1-(1-(2-(2-((2-(2,6-dioxopiperidin-3-yl)-1,3-dioxoisoindolin-4-yl)amino)ethoxy)ethyl)-1H-1,2,3-triazole-4-carbonyl)piperidin-4-yl)-2-(4-phenoxyphenyl)-4,5,6,7-tetrahydropyrazolo[1,5-a]pyrimidine-3-carboxamide], which DC50 is on record?
The DC50 was over 10000 nM.

With `NC(=O)c1c(-c2ccc(Oc3ccccc3)cc2)nn2c1NCC[C@H]2C1CCN(C(=O)CCN2CCC(CN3CCN(c4ccc5c(c4)C(=O)N(C4CCC(=O)NC4=O)C5=O)CC3)CC2)CC1` (stereo partly drawn) [Example 95, (7S)-7-(1-(3-(4-((4-(2-(2,6-dioxopiperidin-3-yl)-1,3-dioxoisoindolin-5-yl)piperazin-1-yl)methyl)piperidin-1-yl)propanoyl)piperidin-4-yl)-2-(4-phenoxyphenyl)-4,5,6,7-tetrahydropyrazolo[1,5-a]pyrimidine-3-carboxamide] as the compound, how does the DC50 read?
Its DC50 is 1680 nM.

For `NC(=O)c1c(-c2ccc(Oc3ccccc3)cc2)nn2c1NCC[C@H]2C1CCN(C(=O)CCCCNc2cccc3c2C(=O)N(C2CCC(=O)NC2=O)C3=O)CC1` (stereo partly drawn) [Example 31, (7S)-7-(1-(5-((2-(2,6-dioxopiperidin-3-yl)-1,3-dioxoisoindolin-4-yl)amino)pentanoyl)piperidin-4-yl)-2-(4-phenoxyphenyl)-4,5,6,7-tetrahydropyrazolo[1,5-a]pyrimidine-3-carboxamide], which DC50 is on record?
The DC50 was over 10000 nM.

Which DC50 does the source give for `NC(=O)c1c(-c2ccc(Oc3ccccc3)cc2)nn2c1NCC[C@H]2C1CCN(C2CCN(Cc3ccc(C(=O)NCCNc4cccc5c4C(=O)N(C4CCC(=O)NC4=O)C5=O)cc3)CC2)CC1` (stereo partly drawn) [Example 43, (7S)-7-(1′-(4-((2-((2-(2,6-dioxopiperidin-3-yl)-1,3-dioxoisoindolin-4-yl)amino)ethyl)carbamoyl)benzyl)-[1, 4′-bipiperidin]-4-yl)-2-(4-phenoxyphenyl)-4,5,6,7-tetrahydropyrazolo[1,5-a]pyrimidine-3-carboxamide] here?
The DC50 was over 10000 nM.

For `NC(=O)c1c(-c2ccc(Oc3ccccc3)cc2)nn2c1NCC[C@H]2C1CCN(C(=O)COCCOCCOCCOCCNC(=O)COc2cccc3c2CN(C2CCC(=O)NC2=O)C3=O)CC1` (stereo partly drawn) [Example 29, (7S)-7-(1-(1-((2-(2,6-dioxopiperidin-3-yl)-1-oxoisoindolin-4-yl)oxy)-2-oxo-6,9, 12, 15-tetraoxa-3-azaheptadecan-17-oyl)piperidin-4-yl)-2-(4-phenoxyphenyl)-4,5,6,7-tetrahydropyrazolo[1,5-a]pyrimidine-3-carboxamide], which DC50 is on record?
The DC50 was 458 nM.

With `NC(=O)c1c(-c2ccc(Oc3ccccc3)cc2)nn2c1NCC[C@H]2C1CCN(C(=O)c2cn(CCOCCOCCOCCOCCCc3cccc4c3CN(C3CCC(=O)NC3=O)C4=O)nn2)CC1` (stereo partly drawn) [Example 10, (7S)-7-(1-(1-(15-(2-(2,6-dioxopiperidin-3-yl)-1-oxoisoindolin-4-yl)-3,6,9, 12-tetraoxapentadecyl)-1H-1,2,3-triazole-4-carbonyl)piperidin-4-yl)-2-(4-phenoxyphenyl)-4,5,6,7-tetrahydropyrazolo[1,5-a]pyrimidine-3-carboxamide] as the compound, how does the DC50 read?
The DC50 was over 10000 nM.
